Assay results published in article PMC7721589, “Synthesis and structure-activity relationships for tetrahydroisoquinoline-based inhibitors of Mycobacterium tuberculosis” (Bioorganic & Medicinal Chemistry, 2020).
Values after ≈ are worked out from the molar mass of the structure shown. Where two headings read alike, the source gives them in different places.

What was measured:
[1] = mouse, microsomes
M.tb strain H37Rv [2] = test: MIC against M.tb H37Rv under aerobic (replicating; MABA) conditions; assay type: cell-based, Mycobacterium tuberculosis; details: for MIC: Mycobacterium tuberculosis; for MIC MABA: MIC90, Table 1
[3] = target: M. smegmatis ATP synthase (Mycolicibacterium smegmatis, UniProt A0R205+A0R206); test: Inhibition of mycobacterial ATP synthase; assay type: biochemical; details: for IC50: read-out: M. smeg ATPsynth IC50, M. smegmatis ATP synthase; for selectivity over the human enzyme: M. smegmatis vs human mitochondrial ATP synthase
M.tb strain H37Rv [4] = test: MIC against M.tb H37Rv under non-replicating (LORA) conditions; details: for MIC LORA: MIC90, Table 1; for MIC (µg/mL) LORA: MIC90, Table 2
[5] = tested on: Vero green monkey-derived epithelial kidney cells; test: Mammalian cytotoxicity in Vero cells; assay type: cell-based; details: for IC50: Chlorocebus sabaeus
[6] = human, microsomes
[7] = Microsomal clearance in human liver microsomes; further: unit not given here
[8] = Microsomal clearance in mouse liver microsomes; further: unit not given here
[9] = Stability in CDCl3 solution; assay type: physicochemical; details: over 1–2 days
Description: Note: The X = OMe compounds 8 and 9 were unstable in CDCl3 solution over 1–2 days.

[10] = MIC90, Table 1, read-out: MIC MABA

| Compound | MIC (M.tb strain H37Rv [2]; [10]) [µg/mL] | IC50 [3] [µM] | MIC LORA (M.tb strain H37Rv [4]) [µg/mL] | IC50 ([5]; Table 1) [µg/mL] | melting point [°C] | also measured |
| --- | --- | --- | --- | --- | --- | --- |
| CCc1ccc(N2CCN(C)CC2)c2c1CCN(C(=O)Nc1ccc(-c3ccc(C(F)(F)F)cc3)cn1)C2 [Compound 27, 5-Ethyl-8-(4-methylpiperazin-1-yl)-N-(5-(4-(trifluoromethyl)phenyl)pyridin-2-yl)-3,4-dihydroisoquinoline-2(1H)-carboxamide] | 1 (≈ 1.91 µM) | 4.2 | 0.9 (≈ 1.72 µM) | 12 (≈ 22.9 µM) |  | MLM Clint [1]: 810; HLM Clint [6]: 107 |
| Cc1ccc(N2CCN(C)CC2)c2c1CCN(C(=O)Nc1ccc(-c3cc(C(F)(F)F)cc(C(F)(F)F)c3)cn1)C2 [Compound 26, N-(5-(3,5-Bis(trifluoromethyl)phenyl)pyridin-2-yl)-5-methyl-8-(4-methylpiperazin-1-yl)-3,4-dihydroisoquinoline-2(1H)-carboxamide] | 3.1 (≈ 5.37 µM) | 24.2 | 5.3 (≈ 9.18 µM) | > 32 | 114 to 117 |  |
| CN1CCN(c2cccc3c2CN(C(=O)Nc2ccc(-c4ccc(OC(F)(F)F)cc4)cn2)CC3)CC1 [Compound 23, 8-(4-Methylpiperazin-1-yl)-N-(5-(4-(trifluoromethoxy)phenyl)pyridin-2-yl)-3,4-dihydroisoquinoline-2(1H)-carboxamide] | 3.6 (≈ 7.04 µM) | 12.1 | 3.9 (≈ 7.62 µM) | 14 (≈ 27.4 µM) |  | selectivity over the human enzyme [3]: > 80 fold |
| COc1ccc(N2CCN(C)CC2)c2c1CCN(C(=O)Nc1ccc(-c3ccc(Cl)cc3Cl)cn1)C2 [Compound 36, N-(5-(2,4-Dichlorophenyl)pyridin-2-yl)-5-methoxy-8-(4-methylpiperazin-1-yl)-3,4-dihydroisoquinoline-2(1H)-carboxamide] | 1.9 (≈ 3.61 µM) | 5.7 |  | > 32 | 108 to 111 | MLM Clint [1]: 584; HLM Clint [6]: 48 |
| Cc1cc(Cl)ccc1-c1ccc(NC(=O)N2CCc3c(F)ccc(N4CCN(C)CC4)c3C2)nc1 [Compound 42, N-(5-(4-Chloro-2-methylphenyl)pyridin-2-yl)-5-fluoro-8-(4-methylpiperazin-1-yl)-3,4-dihydroisoquinoline-2(1H)-carboxamide] | 1.2 (≈ 2.43 µM) | 3.64 | 5.4 (≈ 10.9 µM) | 12 (≈ 24.3 µM) | 98 to 101 | MLM Clint [1]: 65; selectivity over the human enzyme [3]: 9.4 fold; HLM Clint [6]: 50 |
| COc1ccc(N2CCN(C)CC2)c2c1CCN(C(=O)c1ccc(-c3ccc(Cl)cc3)cn1)C2 [Compound 21, (5-(4-Chlorophenyl)pyridin-2-yl)(5-methoxy-8-(4-methylpiperazin-1-yl)-3,4-dihydroisoquinolin-2(1H)-yl)methanone] | 13 (≈ 27.3 µM) |  | 12 (≈ 25.2 µM) | 11 (≈ 23.1 µM) | 124 to 127 |  |
| N-(5-(4-(tert-butyl)phenyl)pyridin-2-yl)-5-methyl-8-(4-methylpiperazin-1-yl)-3,4-dihydroisoquinoline-2(1H)-carboxamide [Compound 7] |  |  | 3.4 |  |  | HLM Clint [7]: 41; MIC MABA (M.tb strain H37Rv [2]): 1.4 µg/mL; MLM Clint [8]: 56; IC50 VERO ([5]; Table 1): 18 µg/mL |
| COc1ccc(N2CCN(C)CC2)c2c1CCN(C(=O)Nc1ccc(-c3ccc(C(F)(F)F)cc3Cl)cn1)C2 [Compound 34, N-(5-(2-Chloro-4-(trifluoromethyl)phenyl)pyridin-2-yl)-5-methoxy-8-(4-methylpiperazin-1-yl)-3,4-dihydroisoquinoline-2(1H)-carboxamide] | 3.6 (≈ 6.43 µM) |  | 3.2 (≈ 5.71 µM) | 12 (≈ 21.4 µM) | 61 to 64 |  |
| COc1ccc(-c2ccc(NC(=O)N3CCc4c(OC)ccc(N5CCN(C)CC5)c4C3)nc2)cc1 [Compound 33, 5-Methoxy-N-(5-(4-methoxyphenyl)pyridin-2-yl)-8-(4-methylpiperazin-1-yl)-3,4-dihydroisoquinoline-2(1H)-carboxamide] | 7.1 (≈ 14.6 µM) |  | 7.4 (≈ 15.2 µM) | 16 (≈ 32.8 µM) | 207 to 209 |  |
| N-(5-(3,5-bis(trifluoromethyl)phenyl)pyridin-2-yl)-5-methoxy-8-(4-methylpiperazin-1-yl)-3,4-dihydroisoquinoline-2(1H)-carboxamide [Compound 9] |  |  | 12 |  |  | MIC MABA (M.tb strain H37Rv [2]): 7.9 µg/mL; IC50 VERO ([5]; Table 1): 19 µg/mL; stability in CDCl3 solution [9]: unstable |
| COc1ccc(N2CCN(C)CC2)c2c1CCN(C(=O)c1ccc(-c3ccc(Cl)cc3C)cn1)C2 [Compound 22, (5-(4-Chloro-2-methylphenyl)pyridin-2-yl)(5-methoxy-8-(4-methylpiperazin-1-yl)-3,4-dihydroisoquinolin-2(1H)-yl)methanone] | 8.9 (≈ 18.1 µM) |  | 8.0 (≈ 16.3 µM) | 22 (≈ 44.8 µM) | 125 to 128 |  |
| COc1ccc(N2CCN(C)CC2)c2c1CCN(C(=O)Nc1ccc(-c3ccc(Cl)cc3C)cn1)C2 [Compound 35, N-(5-(4-chloro-2-methylphenyl)pyridin-2-yl)-5-methoxy-8-(4-methylpiperazin-1-yl)-3,4-dihydroisoquinoline-2(1H)-carboxamide] | 1.9 (≈ 3.75 µM) | 12.4 | 3.1 (≈ 6.13 µM) | 12 (≈ 23.7 µM) | 99 to 101 |  |
| COc1ccc(-c2ccc(NC(=O)N3CCc4c(OC)ccc(N5CCN(C)CC5)c4C3)nc2)cn1 [Compound 32, 5-Methoxy-N-(6′-methoxy-[3,3′-bipyridin]-6-yl)-8-(4-methylpiperazin-1-yl)-3,4-dihydroisoquinoline-2(1H)-carboxamide] | 15.5 (≈ 31.7 µM) |  | 20 (≈ 40.9 µM) | 14 (≈ 28.7 µM) | 93 to 96 |  |
| Cc1ccc(N2CCN(C)CC2)c2c1CCN(C(=O)N1CCC(Oc3ccccc3C(F)(F)F)CC1)C2 [Compound 49, (5-Methyl-8-(4-methylpiperazin-1-yl)-3,4-dihydroisoquinolin-2(1H)-yl)(4-(2-(trifluoromethyl)phenoxy)piperidin-1-yl)methanone] | 7.7 (≈ 14.9 µM) | 12 | 7.3 (≈ 14.1 µM) | 11 (≈ 21.3 µM) |  |  |
| CN1CCN(c2cccc3c2CN(C(=O)c2ccc(-c4cccc(Cl)c4)cn2)CC3)CC1 [Compound 20, (5-(3-Chlorophenyl)pyridin-2-yl)(8-(4-methylpiperazin-1-yl)-3,4-dihydroisoquinolin-2(1H)-yl)methanone] | 15 (≈ 33.6 µM) |  | 11.3 (≈ 25.3 µM) | 24 (≈ 53.7 µM) | 105 to 108 |  |
| CCc1ccc(N2CCN(C)CC2)c2c1CCN(C(=O)Nc1ccc(-c3ccc(Cl)cc3C)cn1)C2 [Compound 28, N-(5-(4-Chloro-2-methylphenyl)pyridin-2-yl)-5-ethyl-8-(4-methylpiperazin-1-yl)-3,4-dihydroisoquinoline-2(1H)-carboxamide] | 2.9 (≈ 5.75 µM) |  | 1.8 (≈ 3.57 µM) | 12 (≈ 23.8 µM) | 180 to 182 |  |
| CN1CCN(c2cccc3c2CN(C(=O)c2ccc(-c4ccc(Cl)cc4)cn2)CC3)CC1 [Compound 19, (5-(4-Chlorophenyl)pyridin-2-yl)(8-(4-methylpiperazin-1-yl)-3,4-dihydroisoquinolin-2(1H)-yl)methanone] | 16 (≈ 35.8 µM) |  | 20 (≈ 44.7 µM) | 27 (≈ 60.4 µM) | 144 to 147 |  |
| Cc1ccc(N2CCN(C)CC2)c2c1CCN(C(=O)N1CCC(Oc3ccc(OC(F)(F)F)cc3)CC1)C2 [Compound 48, (5-Methyl-8-(4-methylpiperazin-1-yl)-3,4-dihydroisoquinolin-2(1H)-yl)(4-(4-(trifluoromethoxy)phenoxy)piperidin-1-yl)methanone] | 6.4 (≈ 12 µM) |  | 3.9 (≈ 7.32 µM) | 19 (≈ 35.7 µM) |  | MLM Clint [1]: 40; HLM Clint [6]: 48 |
| CN1CCN(c2cccc3c2CN(C(=O)Cc2ccc(-c4ccc(Cl)cc4)cn2)CC3)CC1 [Compound 43, 2-(5-(4-Chlorophenyl)pyridin-2-yl)-1-(8-(4-methylpiperazin-1-yl)-3,4-dihydroisoquinolin-2(1H)-yl)ethan-1-one] | 14.1 (≈ 30.6 µM) |  | 20.3 (≈ 44 µM) | 19 (≈ 41.2 µM) | 49 to 52 |  |
| CN1CCN(c2cccc3c2CN(Cc2ccc(-c4ccc(Cl)cc4)cn2)CC3)CC1 [Compound 10, 2-((5-(4-Chlorophenyl)pyridin-2-yl)methyl)-8-(4-methylpiperazin-1-yl)-1,2,3,4-tetrahydroisoquinoline] | 1.8 (≈ 4.16 µM) | 16.6 | 16 (≈ 37 µM) | 16 (≈ 37 µM) |  | MLM Clint [1]: 238; selectivity over the human enzyme [3]: > 70 fold; HLM Clint [6]: 121 |
| Cc1cc(Cl)ccc1-c1ccc(CN2CCc3c(C)ccc(N4CCSCC4)c3C2)nc1 [Compound 54, 4-(2-((5-(4-Chloro-2-methylphenyl)pyridin-2-yl)methyl)-5-methyl-1,2,3,4-tetrahydroisoquinolin-8-yl)yhiomorpholine] |  |  |  |  | 133 to 135 | MIC (M.tb strain H37Rv [2]; MIC90, Table 2, read-out: MIC (µg/mL) MABA): 3.4 µg/mL (≈ 7.33 µM); MIC (µg/mL) LORA (M.tb strain H37Rv [4]): 5.9 µg/mL (≈ 12.7 µM); IC50 ([5]; Table 2): > 32 µg/mL |
| 2-((5-(4-Chlorophenyl)pyridin-2-yl)methyl)-8-(4-methylpiperazin-1-yl)-5-methyl-1,2,3,4-tetrahydroisoquinoline [Compound 12] |  |  | 5.2 |  |  | HLM Clint [7]: 92; MIC MABA (M.tb strain H37Rv [2]): 0.79 µg/mL; MIC (µg/mL) MABA (M.tb strain H37Rv [2]; MIC90, Table 2): 0.79 µg/mL; MLM Clint [8]: 239; MIC (µg/mL) LORA (M.tb strain H37Rv [4]): 5.2 µg/mL; IC50 VERO ([5]; Table 1): 14 µg/mL |
